Activity calls are given as the source filed them. The calls are words filed in the database; no cut-off is given here.
Columns and labels:
[1] = system: SF-268; experiment: Cytotoxicity against human SF268 cells at 4 ug/ml after 48 hrs by sulforhodamine B assay relative to control; type: functional
[2] = system: NCI-H460; experiment: Cytotoxicity against human NCI-H460 cells at 4 ug/ml after 48 hrs by sulforhodamine B assay relative to control; type: functional
[3] = system: MCF7; experiment: Cytotoxicity against human MCF7 cells at 4 ug/ml after 48 hrs by sulforhodamine B assay relative to control; type: functional
[4] = system: K562; experiment: Induction of apoptosis in human K562 cells assessed as activation of caspase-3 activity after 48 hrs by immunoblot analysis; type: functional, cell-based
[5] = system: K562; experiment: Cytotoxicity against human K562 cells after 72 hrs by XTT assay; type: functional; conditions: K562, 72 h
[6] = system: K562; experiment: Induction of apoptosis in human K562 cells assessed as formation of fragmented DNA at 1 to 10 uM after 48 hrs using ethidium bromide staining by agarose gel electrophoresis; type: functional, cell-based
[7] = system: SF-268; experiment: Cytotoxicity against human SF268 cells after 72 hrs by XTT assay; type: functional; conditions: SF-268, 72 h
[8] = Cytotoxicity against human Detroit 551 cells after 72 hrs by XTT assay; type: cell-based
[9] = system: SF-268; experiment: Selectivity index, ratio of GI50 for human Detroit 551 cells to GI50 for human SF268 cells; type: functional
[10] = system: MCF7; experiment: Selectivity index, ratio of GI50 for human Detroit 551 cells to GI50 for human MCF7 cells; type: functional
[11] = system: K562; experiment: Cell cycle arrest in human K562 cells assessed as accumulation at S phase at 1 uM after 24 hrs using propidium iodide staining by flow cytometry; type: functional
[12] = system: K562; experiment: Induction of apoptosis in human K562 cells assessed as morphological changes at 1 to 10 uM after 48 hrs using DAPI staining by fluorescent microscopic analysis; type: functional, cell-based
[13] = system: NCI-H460; experiment: Selectivity index, ratio of GI50 for human Detroit 551 cells to GI50 for human NCI-H460 cells; type: functional
[14] = system: K562; experiment: Cell cycle arrest in human K562 cells assessed as accumulation at G2/M phase at 1 uM after 24 hrs using propidium iodide staining by flow cytometry; type: functional
[15] = system: MCF7; experiment: Cytotoxicity against human MCF7 cells after 72 hrs by XTT assay; type: functional; conditions: MCF7, 72 h
[16] = system: NCI-H460; experiment: Cytotoxicity against human NCI-H460 cells after 72 hrs by XTT assay; type: functional; conditions: NCI-H460, 72 h
[17] = system: K562; experiment: Cell cycle arrest in human K562 cells assessed as accumulation at Sub-G1 phase at 1 uM after 24 hrs using propidium iodide staining by flow cytometry; type: functional
[18] = system: K562; experiment: Cell cycle arrest in human K562 cells assessed as accumulation at G0/G1 phase at 1 uM after 24 hrs using propidium iodide staining by flow cytometry; type: functional
[19] = system: K562; experiment: Selectivity index, ratio of GI50 for human Detroit 551 cells to GI50 for human K562 cells; type: functional
[20] = system: K562; experiment: Induction of apoptosis in human K562 cells assessed as PARP cleavage after 48 hrs by immunoblot analysis; type: functional, cell-based

Row | Compound | Activity [1] | Activity [2] | Activity [3] | Activity [4] | GI50 [5] | Activity [6] | GI50 [7] | GI50 at 72 h [8] | RatioGI50 [9] | RatioGI50 [10] | Activity [11] | Activity [12] | RatioGI50 [13] | Activity [14] | GI50 [15] | GI50 [16] | Activity [17] | Activity [18] | RatioGI50 [19] | Activity [20]
1 | O=[N+]([O-])c1ccc(/N=C2/c3ccccc3/C(=N/c3ccc([N+](=O)[O-])cc3)c3occc32)cc1 | 118% | 117% | 111% | – | – | – | – | – | – | – | – | – | – | – | – | – | – | – | – | –
2 | O=C1c2ccccc2/C(=N/OCCN2CCCCC2)c2ccoc21 | 64% | 79% | 87% | – | – | – | – | – | – | – | – | – | – | – | – | – | – | – | – | –
3 | Cc1ccc(/N=C2/c3ccccc3/C(=N/c3ccc(C)cc3)c3occc32)cc1 | 118% | 104% | 104% | – | – | – | – | – | – | – | – | – | – | – | – | – | – | – | – | –
4 | Fc1ccc(/N=C2/c3ccccc3/C(=N/c3ccc(F)cc3)c3occc32)cc1 | 118% | 103% | 102% | – | – | – | – | – | – | – | – | – | – | – | – | – | – | – | – | –
5 | O=C1c2ccccc2/C(=N/c2ccccc2)c2ccoc21 | 74% | 65% | 74% | – | – | – | – | – | – | – | – | – | – | – | – | – | – | – | – | –
6 | Clc1ccc(/N=C2/c3ccccc3/C(=N/c3ccc(Cl)cc3)c3occc32)cc1 | 116% | 112% | 109% | – | – | – | – | – | – | – | – | – | – | – | – | – | – | – | – | –
7 | COc1ccc(/N=C2/c3ccccc3/C(=N/c3ccc(OC)cc3)c3occc32)cc1 | 85% | 90% | 86% | – | – | – | – | – | – | – | – | – | – | – | – | – | – | – | – | –
8 | CO/N=C1/c2ccccc2C(=O)c2occc21 | 22% | 4% | 36% | Dose-dependent effect | 0.6 µM | Active | 16.5 µM | > 100 µM | >6.05 | >9.85 | 35.7% | Active | >14.79 | 38.2% | 10.2 µM | 6.76 µM | 4.8% | 26.1% | >166.67 | Dose-dependent effect
9 | O=C1c2ccccc2/C(=N/c2ccc(F)cc2)c2ccoc21 | 77% | 67% | 75% | – | – | – | – | – | – | – | – | – | – | – | – | – | – | – | – | –
10 | O=C1c2ccccc2C(=O)c2occc21 | 16% | 2% | 1% | – | 0.65 µM | – | 5.65 µM | 14.8 µM | 2.62 | 2.5 | 29.4% | – | 2.92 | 43.2% | 5.92 µM | 5.07 µM | 8.24% | 27.4% | 22.82 | –
11 | CC(=O)O/N=C1/c2ccccc2C(=O)c2occc21 | 18% | 5% | 10% | – | 8.59 µM | – | 7.9 µM | > 100 µM | >12.66 | >7.51 | 30.2% | – | >13.4 | 41.9% | 13.3 µM | 7.46 µM | 5.82% | 29% | >11.64 | –
12 | CN(C)CCO/N=C1/c2ccccc2C(=O)c2occc21 | 53% | 51% | 78% | – | – | – | – | – | – | – | – | – | – | – | – | – | – | – | – | –
13 | O=C1C(=O)c2ccoc2-c2ccccc21 | 0% | -1% | 0% | – | 0.64 µM | – | 6.38 µM | 5.77 µM | 0.9 | 0.9 | 51.2% | – | 0.9 | 12.7% | 6.42 µM | 6.38 µM | 3.75% | 36.1% | 9.02 | –
14 | Br.NCCCO/N=C1/c2ccccc2C(=O)c2occc21 | 15% | 44% | 10% | – | 6.62 µM | – | 9.02 µM | 40.9 µM | 4.53 | 3.24 | 3.2% | – | 5.69 | 63.3% | 12.6 µM | 7.19 µM | 4.19% | 33.5% | 6.18 | –
15 | COc1cccc2c1C(=O)c1c(O)c3c(c(O)c1C2=O)C[C@@](O)(C(C)=O)C[C@@H]3O[C@H]1C[C@H](N)[C@H](O)[C@H](C)O1 [DAUNORUBICIN] | 16% | 15% | 30% | – | 0.0074 µM | – | 0.6 µM | 1.77 µM | 2.95 | 2.06 | – | – | 4.66 | – | 0.86 µM | 0.38 µM | – | – | 239 | –
16 | O=C1c2ccccc2/C(=N/O)c2ccoc21 | 16% | 5% | 10% | – | 0.82 µM | – | 8.85 µM | > 100 µM | >11.3 | >8.13 | 4.4% | – | >12.97 | 58% | 12.3 µM | 7.71 µM | 4.41% | 37.7% | >121.95 | –
17 | CCN(CC)CCOC(=O)c1ccc(/N=C2/c3ccccc3/C(=N/c3ccc(C(=O)OCCN(CC)CC)cc3)c3occc32)cc1 | 18% | -1% | -1% | – | 0.63 µM | – | 4.1 µM | 1.97 µM | 0.49 | 0.76 | 7.1% | – | 0.88 | 52.5% | 2.6 µM | 2.23 µM | 5.56% | 40.4% | 3.13 | –
18 | FC(F)(F)c1ccc(/N=C2/c3ccccc3/C(=N/c3ccc(C(F)(F)F)cc3)c3occc32)cc1 | 105% | 115% | 111% | – | – | – | – | – | – | – | – | – | – | – | – | – | – | – | – | –
19 | O=C1c2ccccc2/C(=N/OCc2ccccc2)c2ccoc21 | 103% | 85% | 93% | – | – | – | – | – | – | – | – | – | – | – | – | – | – | – | – | –
20 | CC[C@@]1(O)C(=O)OCc2c1cc1n(c2=O)Cc2cc3ccccc3nc2-1 [CAMPTOTHECIN] | 25% | 1% | 33% | – | 0.06 µM | – | 0.19 µM | 0.99 µM | 5.21 | 1.74 | – | – | 33 | – | 0.57 µM | 0.03 µM | – | – | 16.5 | –
21 | O=C1c2ccccc2/C(=N/OCCN2CCOCC2)c2ccoc21 | 90% | 68% | 97% | – | – | – | – | – | – | – | – | – | – | – | – | – | – | – | – | –
22 | CN(C)CCCO/N=C1/c2ccccc2C(=O)c2occc21 | 54% | 51% | 74% | – | – | – | – | – | – | – | – | – | – | – | – | – | – | – | – | –
23 | O=C1c2ccccc2/C(=N/OCCN2CCCC2)c2ccoc21 | 58% | 51% | 72% | – | – | – | – | – | – | – | – | – | – | – | – | – | – | – | – | –
24 | c1ccc(/N=C2/c3ccccc3/C(=N/c3ccccc3)c3occc32)cc1 | 102% | 111% | 111% | – | – | – | – | – | – | – | – | – | – | – | – | – | – | – | – | –
